Values after ≈ are worked out from the molar mass of the structure shown.
How the values were obtained:
[1] = tested on: HeLa (Human cervical cancer cell line); assay: In vitro cytotoxicity, Sulforhodamine B (SRB) assay; format: cell-based; settings: for GI50: Homo sapiens, HeLa, SRB assay, concentration range 50 to 0.78 μg/mL; for cell inhibition HeLa: up to 50 µg/mL concentration, Figure 4
Experimental: To examine the safety of the synthesized compounds, the compounds 4e and 4k were evaluated for their toxicity against the HeLa human cervical cancer cell line by a Sulforhodamine B (SRB) assay using Adriamycin as a standard drug.
In vitro cytotoxicity study of the synthesized compounds 4e and 4k was performed against HeLa (Human cervical cancer cell line) by Sulforhodamine B (SRB) assay using Adriamycin as positive control. The images were captured using an Eclipse Ti-S Inverted Research Microscope (Nikon, Tokyo, Japan). Image processing software used was NIS-Elements.

[2] = tested on: Candida glabrata (NCYC-388); assay: In vitro antifungal activity, MIC, agar method (CLSI); format: cell-based; settings: Nakaseomyces glabratus; average of three readings
Experimental: (§1) The newly synthesized 3-((dicyclohexylamino)(substituted phenyl/heteryl)methyl)-4-hydroxy-2H-chromen-2-one derivatives 4a–o were screened for their in vitro antifungal activity against different yeast and filamentous fungal pathogens. […] Dimethyl sulfoxide (DMSO) was used as solvent control.
(§2) All the synthesized compounds were screened for their in vitro antifungal and antibacterial activity. The antibacterial activity was evaluated against three human pathogenic bacterial strains: Escherichia coli (NCIM-2256), Bacillus subtilis (NCIM-2063) and Staphylococcus aureus (NCIM-2901). The antifungal activity was evaluated against seven human pathogenic fungal strains: Candida albicans (NCIM-3471), Candida glabrata (NCYC-388), Fusarium oxysporum (NCIM-1332), Aspergillus fumigates (NCIM-902), Aspergillus flavus (NCIM-539), Aspergillus niger (NCIM-1196) and Cryptococcus neoformans (NCIM-576), which are often encountered clinically. […] Minimum inhibitory concentration (MIC) values were determined as per CLSI guidelines. Dimethyl sulfoxide (DMSO) was used as solvent control.
(§3) Antifungal activity was determined as per CLSI (formerly, NCCLS) guidelines. […] The medium yeast nitrogen base was dissolved in phosphate buffer pH 7 and it was autoclaved at 110 °C for 10 min. With each set a growth control without the antifungal agent and solvent control DMSO were included. The fungal strains were freshly sub cultured on to Sabouraud dextrose agar (SDA) and incubated at 25 °C for 72 h. The fungal cells were suspended in sterile distilled water and diluted to get 10^5 cells/mL. Ten μL of the standardized suspension was inoculated onto the control plates and the media incorporated with the antifungal agents. The inoculated plates were incubated at 25 °C for 48 h. The readings were taken at the end of 48 h and 72 h. The MIC was the lowest concentration of drug preventing growth of macroscopically visible colonies on drug containing plates when there was visible growth on the drug free control plates.

[3] = tested on: Aspergillus fumigates (NCIM-902); assay: as above; format: cell-based; settings: NCIM902, average of three readings
Experimental: as §1, §2, §3

[4] = tested on: Cryptococcus neoformans (NCIM-576); assay: as above; format: cell-based; settings: NCIM576, average of three readings
Experimental: as §1, §2, §3

[5] = tested on: Aspergillus flavus (NCIM-539); assay: as above; format: cell-based; settings: NCIM539, average of three readings
Experimental: as §1, §2, §3

[6] = tested on: Aspergillus niger (NCIM-1196); assay: as above; format: cell-based; settings: NCIM1196, average of three readings
Experimental: as §1, §2, §3

[7] = tested on: Fusarium oxysporum (NCIM-1332); assay: as above; format: cell-based; settings: NCIM1332, average of three readings
Experimental: as §1, §2, §3

[8] = tested on: Candida albicans (NCIM-3471); assay: as above; format: cell-based; settings: NCIM3471, average of three readings
Experimental: as §1, §2, §3

[9] = tested on: Bacillus subtilis (NCIM-2063); assay: In vitro antibacterial activity, MIC; format: cell-based; settings: average of three readings; for MIC: Bacillus subtilis, NCIM2063
Experimental: (§4) The newly synthesized compounds 4a–o were screened for their in vitro antibacterial activity against the three different bacterial strains. Minimum inhibitory concentration (MIC) values for antibacterial activity were determined by standard agar method using Ampicillin as standard drug. Dimethyl sulfoxide (DMSO) was used as solvent control. […] Compound 4e bearing a 2,4-difluoro group on the phenyl ring was 48 µg/mL for E. coli, 50 µg/mL for B. subtilis and 52 µg/mL for S. aureus.
(§5) All the synthesized compounds were screened for their in vitro antifungal and antibacterial activity. The antibacterial activity was evaluated against three human pathogenic bacterial strains: Escherichia coli (NCIM-2256), Bacillus subtilis (NCIM-2063) and Staphylococcus aureus (NCIM-2901). The antifungal activity was evaluated against seven human pathogenic fungal strains: Candida albicans (NCIM-3471), Candida glabrata (NCYC-388), Fusarium oxysporum (NCIM-1332), Aspergillus fumigates (NCIM-902), Aspergillus flavus (NCIM-539), Aspergillus niger (NCIM-1196) and Cryptococcus neoformans (NCIM-576), which are often encountered clinically. Miconazole was used as standard drug. Minimum inhibitory concentration (MIC) values were determined as per CLSI guidelines. Dimethyl sulfoxide (DMSO) was used as solvent control.
(§6) All the synthesized compounds 4a–o were screened for their in vitro antibacterial activity. Minimum inhibitory concentration (MIC) values were determined using method recommended by National Committee for Clinical Laboratory Standards (NCCLS). In vitro antibacterial activities of the synthesized compounds 4a–o were tested in Nutrient Broth (NB) for bacteria by the two fold serial dilution method. Seeded broth (broth containing microbial spores) was prepared in NB from 24 h old bacterial cultures on nutrient agar (Hi-media) at 37± 1 °C. The bacterial suspension was adjusted with sterile saline to a concentration of 1× 10^−4–10^−5 C.F.U. The synthesized compounds and standard drug Ampicillin were prepared by two fold serial dilutions to obtain the required concentrations of 400, 200, 100, 50, 25, 12.5, 6.25 and 3.13 μg/mL. The tubes were incubated in BOD incubators at 37± 1 °C for bacteria. The MICs were recorded by visual observations after 24 h (for bacteria) of incubation.

[10] = tested on: Staphylococcus aureus (NCIM-2901); assay: In vitro antibacterial activity, MIC; format: cell-based; settings: average of three readings; for MIC: Staphylococcus aureus, NCIM2901
Experimental: as §4, §5, §6

[11] = tested on: Escherichia coli (NCIM-2256); assay: In vitro antibacterial activity, MIC; format: cell-based; settings: average of three readings; for MIC: Escherichia coli, NCIM2256
Experimental: as §4, §5, §6

Swiss albino mice = assay: In vivo acute oral toxicity study and behavioral study (OECD guideline no. 425); design: key to Straub Tail / Pilo Erection / Convulsions / Normal Motor Activity / Stereotypy / Tremors / Sedation / Hypnosis / Muscle Spasms / Toxicity / Deaths / Eye Lacrimation / Salivation / Diarrhea / Respiration Problems: N: no; Y: yes; settings: for Convulsions / Deaths / Diarrhea / Eye Lacrimation / Hypnosis / Muscle Spasms / Normal Motor Activity / Pilo Erection / Respiration Problems / Salivation / Sedation / Stereotypy / Straub Tail / Toxicity / Tremors: Swiss albino mice, single oral dose 100–2000 mg/kg; for lethal dose: oral, mice, body weight, no mortality up to 2000 mg/kg
Experimental: In vivo acute oral toxicity study and gross behavioral studies of the newly synthesized compounds 4e and 4k is shown in Table 5.
425 using Swiss albino mice (18–22 gm weight) quarantined at animal house at Y.B. Chavan College of Pharmacy, Aurangabad IAEC approval number CPCSEA/IAEC/P’col-52/2015-16/115. Each group consists of six mice (overnight fasted) and kept in colony cage at 25 ± 2 °C with 55% relative humidity and 12 h of light and dark cycle. A specified dose of 100, 250, 500, 750, 1000, 1500 and 2000 mg/kg body weight of mice was administered orally as a single dose. The acute toxic symptoms and the behavioral changes produced by the synthesized compounds were observed continuously for 4 h periods at 8th, 12th and 24th h on set of toxic symptoms and the gross behavioral changes were also recorded. These animals were maintained for further 10 days with observation made daily.

[12] = tested on: ergosterol biosynthesis in C. albicans; assay: Ergosterol extraction and quantitation assay; format: cell-based, Candida albicans (NCIM-3471); settings: at the MIC value (25 µg/mL), C. albicans NCIM3471
Experimental: A single Candida albicans (NCIM-3471) colony from an overnight Sabouraud dextrose agar plate culture was used to inoculate 50 mL of Sabouraud dextrose broth for control and for various concentrations of the molecules. […] The net weight of the cell pellet was determined. […] Cell suspensions were transferred to sterile borosilicate glass screw-cap tubes and were incubated in an 85 °C water bath for one hour. Following incubation, the tubes were allowed to cool. […] The heptane layer was transferred to a clean borosilicate glass screw-cap tube and stored at −20 °C. […] The absence of detectable ergosterol in extracts was indicated by a flat line.

In the case of COc1cccc2c1C(=O)c1c(O)c3c(c(O)c1C2=O)C[C@@](O)(C(=O)CO)C[C@@H]3O[C@H]1C[C@H](N)[C@H](O)[C@H](C)O1 [Adriamycin, reference compound], the GI50 [1] is reported as 0.5 µg/mL (≈ 0.92 µM).
O=c1oc2ccccc2c(O)c1C(c1ccc(F)cc1F)N(C1CCCCC1)C1CCCCC1 (stereo not drawn) [Compound 4e, 3-((Dicyclohexylamino)(2,4-difluorophenyl)methyl)-4-hydroxy-2H-chromen-2-one] showed an MIC [2] of 26 µg/mL (≈ 55.6 µM), an MIC [3] of 28 µg/mL (≈ 59.9 µM) and an MIC [4] of 12 µg/mL (≈ 25.7 µM). It also gave an MIC [5] of 12 µg/mL (≈ 25.7 µM), an MIC [6] of 12 µg/mL (≈ 25.7 µM) and an MIC [7] of 30 µg/mL (≈ 64.2 µM). For the same compound, the MIC [8] was 28 µg/mL (≈ 59.9 µM), the MIC [9] was 50 µg/mL (≈ 107 µM) and the “MIC Bacillus subtilis” value [9] was 50 µg/mL (≈ 107 µM). For the same compound, the MIC [10] was 52 µg/mL (≈ 111 µM), the “MIC Staphylococcus aureus” value [10] was 52 µg/mL (≈ 111 µM) and the MIC [11] was 48 µg/mL (≈ 103 µM). The “MIC Escherichia coli” value [11] was 48 µg/mL (≈ 103 µM), the GI50 [1] was over 50 µg/mL and the “cell inhibition HeLa” value [1] was “did not take place”. For the same compound, the Convulsions (Swiss albino mice) was “N”, the Deaths (Swiss albino mice) was “N” and the Diarrhea (Swiss albino mice) was “N”. The “Eye Lacrimation” value (Swiss albino mice) was “N”, the Hypnosis (Swiss albino mice) was “N” and the “Muscle Spasms” value (Swiss albino mice) was “N”. The “Normal Motor Activity” value (Swiss albino mice) was “Y”, the “Pilo Erection” value (Swiss albino mice) was “N” and the “Respiration Problems” value (Swiss albino mice) was “N”. The Salivation (Swiss albino mice) was “N”, the Sedation (Swiss albino mice) was “N” and the Stereotypy (Swiss albino mice) was “N”. For the same compound, the “Straub Tail” value (Swiss albino mice) was “N”, the Toxicity (Swiss albino mice) was “N” and the Tremors (Swiss albino mice) was “N”. The lethal dose (Swiss albino mice) was “above 2000 mg/kg”.
For COc1cc(C(c2c(O)c3ccccc3oc2=O)N(C2CCCCC2)C2CCCCC2)ccc1O (stereo not drawn) [Compound 4k, 3-((Dicyclohexylamino)(4-hydroxy-3-methoxyphenyl)methyl)-4-hydroxy-2H-chromen-2-one], the “UV sterol profile, ergosterol peak at 281.5 nm” value [12] was “almost a flat curve”, the MIC [2] was 30 µg/mL (≈ 62.8 µM) and the MIC [3] was 38 µg/mL (≈ 79.6 µM). The MIC [4] was 15 µg/mL (≈ 31.4 µM), the MIC [5] was 12 µg/mL (≈ 25.1 µM) and the MIC [6] was 15 µg/mL (≈ 31.4 µM). For the same compound, the MIC [7] was 28 µg/mL (≈ 58.6 µM), the MIC [8] was 25 µg/mL (≈ 52.3 µM) and the MIC [9] was 55 µg/mL (≈ 115 µM). For the same compound, the MIC [10] was 54 µg/mL (≈ 113 µM), the MIC [11] was 55 µg/mL (≈ 115 µM) and the GI50 [1] was over 50 µg/mL. For the same compound, the “cell inhibition HeLa” value [1] was “did not take place”, the Convulsions (Swiss albino mice) was “N” and the Deaths (Swiss albino mice) was “N”. For the same compound, the Diarrhea (Swiss albino mice) was “N”, the “Eye Lacrimation” value (Swiss albino mice) was “N” and the Hypnosis (Swiss albino mice) was “N”. The “Muscle Spasms” value (Swiss albino mice) was “N”, the “Normal Motor Activity” value (Swiss albino mice) was “Y” and the “Pilo Erection” value (Swiss albino mice) was “N”. For the same compound, the “Respiration Problems” value (Swiss albino mice) was “N”, the Salivation (Swiss albino mice) was “N” and the Sedation (Swiss albino mice) was “N”. For the same compound, the Stereotypy (Swiss albino mice) was “N”, the “Straub Tail” value (Swiss albino mice) was “N” and the Toxicity (Swiss albino mice) was “N”. The Tremors (Swiss albino mice) was “N” and the lethal dose (Swiss albino mice) was “above 2000 mg/kg”.
Compound O=c1oc2ccccc2c(O)c1C(c1ccco1)N(C1CCCCC1)C1CCCCC1 (stereo not drawn) [Compound 4o, 3-((Dicyclohexylamino)(furan-2-yl)methyl)-4-hydroxy-2H-chromen-2-one] has an MIC [2] of 55 µg/mL (≈ 130 µM), an MIC [3] of 65 µg/mL (≈ 154 µM) and an MIC [4] of 48 µg/mL (≈ 114 µM). The MIC [5] was 46 µg/mL (≈ 109 µM), the MIC [6] was 49 µg/mL (≈ 116 µM) and the MIC [7] was 55 µg/mL (≈ 130 µM). It also gave an MIC [8] of 56 µg/mL (≈ 133 µM), an MIC [9] of 74 µg/mL (≈ 176 µM) and an MIC [10] of 70 µg/mL (≈ 166 µM). For the same compound, the MIC [11] was 66 µg/mL (≈ 157 µM) and the melting point was 148 to 150 °C.
